How the values were obtained:
yeast = test: growth rescue ARC experiments performed in yeast; type: cell-based; settings: Saccharomyces cerevisiae, read-out: in vivo IC50
Recombinant p38 = target: T1, Recombinant p38 (Homo sapiens, UniProt Q16539); test: p38 assay (32P incorporation into GST-ATF-2); type: biochemical; settings: recombinant p38, GST-ATF-2 substrate, 30 μM ATP; IC50 estimated from graph
T1 construct: purchased Biomol SE-150
Experimental: (A) Protocol: Recombinant p38 was pre-incubated for 30 minutes at room temperature in ADB (Assay Dilution Buffer: 20 mM MOPS, pH 7.2, 20 mM MgCl2, 5 mM EGTA, 1 mM DTT, 25 mM β-glycerolphosphate, 2 mM pNPP, 0.1 mM sodium orthovanadate) with recombinant GST-ATF-2 and compounds at various concentrations. The DMSO concentration was held constant at 0.1% (v/v) independent of the compound concentration. Kinase reactions were started with a mixture of ^32P-γ-ATP and ATP in ADB and were incubated for 30 minutes at 37° C. Final concentrations in kinase reactions was 0.625 ng/μl recombinant p38 (Biomol, catalog number SE-150), 62.5 ng/μl recombinant GST-ATF-2 (Upstate Biotechnology, catalog #12-367) and 30 μM ATP (Amersham, catalog #AA0068, used within two weeks of the reference date). Reactions were terminated by the addition of stopmix (final concentrations: 62.5 mM Tris pH 6.8, 10% (v/v) glycerol, 5% (v/v) B-mercaptoethanol, 20 mg/ml SDS, 1 mg/ml bromophenol blue). At this point samples were either processed directly or stored at 4° C. For analysis, samples were heated to 95° C. for 5 min and proteins were separated by SDS-PAGE using 8-16% precast gels (Novex). […] Screens were scanned using a PhosphoImager SI (Molecular Dynamics) and the amount of radioactive ^32P incorporated into GST-ATF-2 was quantified using ImageQuant (Molecular Dynamics) software. […]

T1 sequence (Q16539 whole entry): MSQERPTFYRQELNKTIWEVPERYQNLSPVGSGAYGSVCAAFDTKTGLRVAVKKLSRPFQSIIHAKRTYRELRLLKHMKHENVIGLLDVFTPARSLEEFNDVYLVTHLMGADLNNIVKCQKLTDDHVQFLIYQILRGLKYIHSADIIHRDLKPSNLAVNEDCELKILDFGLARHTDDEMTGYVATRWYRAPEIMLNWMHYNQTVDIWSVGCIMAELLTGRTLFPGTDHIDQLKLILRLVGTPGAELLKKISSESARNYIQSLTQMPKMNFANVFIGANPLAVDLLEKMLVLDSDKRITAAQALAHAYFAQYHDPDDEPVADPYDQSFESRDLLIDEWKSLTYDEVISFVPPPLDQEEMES

With `CC(C)/N=C(/Nc1cccc(C(F)(F)F)c1)c1ccncc1` [X, N-(3-trifluoromethylphenyl)-N′-isopropyl-4-amidinopyridine] the IC50 (yeast) was 13.2 µM and the IC50 (Recombinant p38) was 0.75 µM.

Source: US6537996B2, “Modulators of p38 MAP kinase” (Iconix Pharmaceuticals, Inc., priority 2000, dated 2003)
